# Target: T1, mouse GnRH receptor (Mus musculus, UniProt Q01776)
# T1 construct: expressed in transfected cells; host or cells: 293 cells
# T1 sequence (Q01776 1-327): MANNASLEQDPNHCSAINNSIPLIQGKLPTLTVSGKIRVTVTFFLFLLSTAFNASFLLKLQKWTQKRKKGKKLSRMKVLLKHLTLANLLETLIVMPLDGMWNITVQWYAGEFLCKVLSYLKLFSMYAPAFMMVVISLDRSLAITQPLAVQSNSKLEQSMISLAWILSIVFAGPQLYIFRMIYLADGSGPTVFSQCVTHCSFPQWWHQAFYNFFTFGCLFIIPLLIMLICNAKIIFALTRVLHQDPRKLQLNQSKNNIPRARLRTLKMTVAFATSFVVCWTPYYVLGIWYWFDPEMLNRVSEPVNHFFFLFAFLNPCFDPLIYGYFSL
# Experiment: Radioligand binding, 125I-GnRH-A, 293 cells expressing mouse GnRH receptors
# Conditions: 10 uM; read-out: % Inhib. @ 10 uM mGnRH
# Outline: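 Bound label captured on 0.1% polyethyleneimine-treated GF/C filters, washed three times with PBS, counted. IC50 derived; identical set-up for every species.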
row,Structure (SMILES),inhibition at 10 µM [%]
1,CCOC(=O)C1CCCCN1C(=O)c1ccc(Cc2cc3c(cc2C)C(C)(C)CCC3(C)C)o1 (centres unmarked),94
2,Cc1cc2c(cc1Cc1ccc(C(=O)N3CCC(O)(Cc4ccccc4)CC3)o1)C(C)(C)CCC2(C)C,67
3,COC(=O)C1CN(C(=O)c2ccc(Cc3cc4c(cc3C)C(C)(C)CCC4(C)C)o2)CC(C)C1=O (centres unmarked),26
4,CCOC(=O)C1CN(C(=O)c2ccc(Cc3cc4c(cc3C)C(C)(C)CCC4(C)C)o2)CCC1=O (centres unmarked),71
5,Cc1cc2c(cc1Cc1ccc(C(=O)N3CCCCC3C[C@H]3CCCN3C)o1)C(C)(C)CCC2(C)C (some centres unmarked),28
6,Cc1cc2c(cc1Cc1ccc(C(=O)N3CCN(C(=O)OC(C)(C)C)CC3)o1)C(C)(C)CCC2(C)C,90
7,Cc1cc2c(cc1Cc1ccc(C(=O)N3CCCCC3CCN3CCCCC3)o1)C(C)(C)CCC2(C)C (centres unmarked),103
8,CCC1CCC(C)N(C(=O)c2ccc(Cc3cc4c(cc3C)C(C)(C)CCC4(C)C)o2)C1 (centres unmarked),95
9,Cc1cc2c(cc1Cc1ccc(C(=O)N3CCN(CCN4CCOCC4)CC3)o1)C(C)(C)CCC2(C)C,73
10,Cc1cc2c(cc1Cc1ccc(C(=O)N3CCN(CCCN(C)C)CC3)o1)C(C)(C)CCC2(C)C,96
11,C#CCN(CCC)CCN1CCN(C(=O)c2ccc(Cc3cc4c(cc3C)C(C)(C)CCC4(C)C)o2)CC1,101
12,Cc1cc2c(cc1Cc1ccc(C(=O)N3CCN(CCN(C)C)CC3)o1)C(C)(C)CCC2(C)C,98
13,Cc1cc2c(cc1Cc1ccc(C(=O)N3CCN(CC(=O)N(C)c4ccccc4)CC3)o1)C(C)(C)CCC2(C)C,103
14,C=CCN1CCN(C(=O)c2ccc(Cc3cc4c(cc3C)C(C)(C)CCC4(C)C)o2)CC1,95
15,Cc1cc2c(cc1Cc1ccc(C(=O)NC(C(C)C)C(C)C)o1)C(C)(C)CCC2(C)C,58
16,CCCCNC(=O)c1ccc(Cc2cc3c(cc2C)C(C)(C)CCC3(C)C)o1,90
17,Cc1cc2c(cc1Cc1ccc(C(=O)N(Cc3ccccc3Cl)CC(c3ccccc3)c3ccccc3)o1)C(C)(C)CCC2(C)C,8
18,Cc1ccc(CN(CCCN2CCOCC2)C(=O)c2ccc(Cc3cc4c(cc3C)C(C)(C)CCC4(C)C)o2)cc1,103
19,CSc1ccc(CN(CCc2ccccn2)C(=O)c2ccc(Cc3cc4c(cc3C)C(C)(C)CCC4(C)C)o2)cc1,75
20,CCC(COC)NC(=O)c1ccc(Cc2cc3c(cc2C)C(C)(C)CCC3(C)C)o1 (centres unmarked),98
21,Cc1cc2c(cc1Cc1ccc(C(=O)N(Cc3ccc(O)cc3)C3CCN(Cc4ccccc4)C3)o1)C(C)(C)CCC2(C)C (centres unmarked),82
22,Cc1cc2c(cc1Cc1ccc(C(=O)N(CCCN3CCN(C)CC3)Cc3ccc(Cl)c(Cl)c3)o1)C(C)(C)CCC2(C)C,104
23,Cc1cc2c(cc1Cc1ccc(C(=O)N(CCCN3CCN(C)CC3)Cc3ccc(OCCCN(C)C)cc3)o1)C(C)(C)CCC2(C)C,100
24,Cc1cc2c(cc1Cc1ccc(C(=O)N(CCCO)Cc3ccc(Cl)cc3Cl)o1)C(C)(C)CCC2(C)C,94
25,CCc1ccc(CN(CCCO)C(=O)c2ccc(Cc3cc4c(cc3C)C(C)(C)CCC4(C)C)o2)cc1,88

row,Structure (SMILES),inhibition at 10 µM [%]
1,Cc1cc2c(cc1Cc1ccc(C(=O)N(CCCO)CCC(C)CCCC(C)(C)O)o1)C(C)(C)CCC2(C)C (centres unmarked),99
2,Cc1cc2c(cc1Cc1ccc(C(=O)N3Cc4ccccc4CC3CO)o1)C(C)(C)CCC2(C)C (centres unmarked),61
3,CCN(CC)CCCC(C)N(Cc1ccc(F)cc1)C(=O)c1ccc(Cc2cc3c(cc2C)C(C)(C)CCC3(C)C)o1 (centres unmarked),102
4,Cc1cc2c(cc1Cc1ccc(C(=O)N(CCCc3ccccc3)Cc3ccc(Oc4ccccc4)cc3)o1)C(C)(C)CCC2(C)C,17
5,Cc1cc2c(cc1Cc1ccc(C(=O)NCC3CC3)o1)C(C)(C)CCC2(C)C,86
6,Cc1ccc(C(C)NC(=O)c2ccc(Cc3cc4c(cc3C)C(C)(C)CCC4(C)C)o2)cc1 (centres unmarked),97
7,CCCCN(CCC#N)C(=O)c1ccc(Cc2cc3c(cc2C)C(C)(C)CCC3(C)C)o1,87
8,Cc1cc2c(cc1Cc1ccc(C(=O)N(C)C3CCCC3)o1)C(C)(C)CCC2(C)C,100
9,Cc1cc2c(cc1Cc1ccc(C(=O)NC[C@@H](C)c3ccccc3)o1)C(C)(C)CCC2(C)C,70
10,Cc1cc2c(cc1Cc1ccc(C(=O)N3CCN(C4Nc5ccccc5Oc5ccc(Cl)cc54)CC3)o1)C(C)(C)CCC2(C)C (centres unmarked),5
11,Cc1cc2c(cc1Cc1ccc(C(=O)N(CCC#N)CC3CCCO3)o1)C(C)(C)CCC2(C)C (centres unmarked),95
12,CCCN(CCC#N)C(=O)c1ccc(Cc2cc3c(cc2C)C(C)(C)CCC3(C)C)o1,94
13,Cc1cc2c(cc1Cc1ccc(C(=O)N(C)CCC(O)c3ccccc3)o1)C(C)(C)CCC2(C)C (centres unmarked),99
14,CCN(CCCCO)C(=O)c1ccc(Cc2cc3c(cc2C)C(C)(C)CCC3(C)C)o1,94
15,Cc1cc2c(cc1Cc1ccc(C(=O)N3CCCC(C)C3)o1)C(C)(C)CCC2(C)C (centres unmarked),97
16,CCN(Cc1ccccc1)C(=O)c1ccc(Cc2cc3c(cc2C)C(C)(C)CCC3(C)C)o1,86
17,Cc1cc2c(cc1Cc1ccc(C(=O)N(Cc3cccc(Cl)c3)Cc3cccc(Cl)c3)o1)C(C)(C)CCC2(C)C,17
18,CCN(CC)CCCCNC(=O)c1ccc(Cc2cc3c(cc2C)C(C)(C)CCC3(C)C)o1,101
19,CCN(CC)CCCN(CCCN(CC)CC)C(=O)c1ccc(Cc2cc3c(cc2C)C(C)(C)CCC3(C)C)o1,69
20,CCN(CC)CCCN(C)C(=O)c1ccc(Cc2cc3c(cc2C)C(C)(C)CCC3(C)C)o1,92
21,Cc1cc2c(cc1Cc1ccc(C(=O)N3CCN(C(C)c4ccccc4)CC3)o1)C(C)(C)CCC2(C)C (centres unmarked),91
22,Cc1cc2c(cc1Cc1ccc(C(=O)N3CCN(C(C)C)CC3)o1)C(C)(C)CCC2(C)C,100
23,Cc1cc2c(cc1Cc1ccc(C(=O)N3CCN(c4ccc(OCc5ccccc5)cc4)CC3)o1)C(C)(C)CCC2(C)C,44
24,Cc1cc2c(cc1Cc1ccc(C(=O)N(CC#N)CC#N)o1)C(C)(C)CCC2(C)C,64
25,Cc1cc2c(cc1Cc1ccc(C(=O)N(C)[C@@H](C)Cc3ccccc3)o1)C(C)(C)CCC2(C)C,59

row,Structure (SMILES),inhibition at 10 µM [%]
1,Cc1cc2c(cc1Cc1ccc(C(=O)N[C@@H](C)C(O)c3ccccc3)o1)C(C)(C)CCC2(C)C (some centres unmarked),63
2,Cc1cc2c(cc1Cc1ccc(C(=O)NC(C)(C)C(=O)OC(C)(C)C)o1)C(C)(C)CCC2(C)C,75
3,Cc1cc2c(cc1Cc1ccc(C(=O)NC3CCCCC3C3CCCCC3)o1)C(C)(C)CCC2(C)C (centres unmarked),13
4,COCCN1CCN(C(=O)c2ccc(Cc3cc4c(cc3C)C(C)(C)CCC4(C)C)o2)CC1,81
5,Cc1cc2c(cc1Cc1ccc(C(=O)N3CCc4[nH]c5c(F)cccc5c4C3)o1)C(C)(C)CCC2(C)C,46
6,COc1ccccc1C1CCN(C(=O)c2ccc(Cc3cc4c(cc3C)C(C)(C)CCC4(C)C)o2)CC1,63
7,COc1ccc(CCN(CC(C)c2ccccc2)C(=O)c2ccc(Cc3cc4c(cc3C)C(C)(C)CCC4(C)C)o2)cc1OC (centres unmarked),72
8,Cc1cc2c(cc1Cc1ccc(C(=O)N3CCC(NC(=O)OC(C)(C)C)CC3)o1)C(C)(C)CCC2(C)C,67
9,Cc1cc2c(cc1Cc1ccc(C(=O)NCCN3CCN(c4nccc(NCC5CCCO5)n4)CC3)o1)C(C)(C)CCC2(C)C (centres unmarked),96
10,CCOC(CN(Cc1ccncc1)C(=O)c1ccc(Cc2cc3c(cc2C)C(C)(C)CCC3(C)C)o1)OCC,31
11,CCOC(=O)CC1C(=O)NCCN1C(=O)c1ccc(Cc2cc3c(cc2C)C(C)(C)CCC3(C)C)o1 (centres unmarked),98
12,CCN(CC)CCN1CCN(C(=O)c2ccc(Cc3cc4c(cc3C)C(C)(C)CCC4(C)C)o2)CC1,98
13,Cc1cc2c(cc1Cc1ccc(C(=O)N(C)CC(O)CO)o1)C(C)(C)CCC2(C)C (centres unmarked),69
14,CCOC(CNC(=O)c1ccc(Cc2cc3c(cc2C)C(C)(C)CCC3(C)C)o1)OCC,100
15,CCC(C)CN(CCO)C(=O)c1ccc(Cc2cc3c(cc2C)C(C)(C)CCC3(C)C)o1 (centres unmarked),101
16,C=CCN(C(=O)c1ccc(Cc2cc3c(cc2C)C(C)(C)CCC3(C)C)o1)C1CCCC1,95
17,CCCCN(CC)CCNC(=O)c1ccc(Cc2cc3c(cc2C)C(C)(C)CCC3(C)C)o1,101
18,CCCN(C(=O)c1ccc(Cc2cc3c(cc2C)C(C)(C)CCC3(C)C)o1)C(C)CC (centres unmarked),94
19,Cc1cc2c(cc1Cc1ccc(C(=O)NC(CO)(CO)CO)o1)C(C)(C)CCC2(C)C,13
20,Cc1cc2c(cc1Cc1ccc(C(=O)N3CCC3)o1)C(C)(C)CCC2(C)C,63
21,Cc1cc2c(cc1Cc1ccc(C(=O)N(Cc3ccco3)C3CC(=O)N(Cc4ccccc4)C3=O)o1)C(C)(C)CCC2(C)C (centres unmarked),20
22,Cc1cc2c(cc1Cc1ccc(C(=O)N3CCCC3C(O)(c3ccccc3)c3ccccc3)o1)C(C)(C)CCC2(C)C (centres unmarked),31
23,Cc1cc2c(cc1Cc1ccc(C(=O)N3CCN(C(=O)C(c4ccccc4)c4ccccc4)CC3)o1)C(C)(C)CCC2(C)C,36
24,Cc1cc2c(cc1Cc1ccc(C(=O)N3CCN(C(c4ccccc4)c4ccccc4)CC3)o1)C(C)(C)CCC2(C)C,33
25,CC1(C)CCC(C)(C)c2cc(Cc3ccc(C(=O)NC4c5ccccc5-c5ccccc54)o3)ccc21,53

# Same assay, conditions: read-out: % Inhib. @ 10 uM mGnRH
row,Structure (SMILES),inhibition at 10 µM [%]
1,Cc1cc2c(cc1Cc1ccc(C(=O)N3CCC(O)(O)CC3)o1)C(C)(C)CCC2(C)C,22
2,Cc1cc2c(cc1Cc1ccc(C(=O)N3CCC4(CC3)OCCCO4)o1)C(C)(C)CCC2(C)C,99

# From patent publication US7101878B1 (Agouron Pharmaceuticals, Inc., priority 1998, dated 2006)
